ChEMBL document CHEMBL1129402, “Structure-based design of HIV protease inhibitors: 5,6-dihydro-4-hydroxy-2-pyrones as effective, nonpeptidic inhibitors” (J Med Chem, 1996)

Target: Human immunodeficiency virus type 1 protease (Human immunodeficiency virus 1, UniProt Q72874)
Assay: HIV Protease inhibitory activity

Compound	Ki	IC50
CCCC1(c2ccccc2)CC(=O)C(C(CC)c2ccccc2)=C(O)O1 (centres undefined)	0.095 µM	
CCC(C1=C(O)OC(CC)(c2ccccc2)CC1=O)c1ccccc1 (centres undefined)	0.16 µM	
CCC(C1=C(O)OC2(CCCCCCC2)CC1=O)c1ccccc1 (centres undefined)		3 µM
CCCC1(CCc2ccccc2)CC(=O)C(C(c2ccccc2)C2CC2)=C(O)O1 (centres undefined)	0.064 µM	
CCC(C1=C(O)OC2(CCC(=O)CC2)CC1=O)c1ccccc1 (centres undefined)		> 1 µM
CCC(C1=C(O)OC(CC(C)C)(CC(C)C)CC1=O)c1ccccc1 (centres undefined)		75 µM
CCC(C1=C(O)OC(Cc2ccccc2)(Cc2ccccc2)CC1=O)c1ccccc1 (centres undefined)		> 10 µM
CCC(C1=C(O)OC(Cc2ccccc2)(c2ccccc2)CC1=O)c1ccccc1 (centres undefined)		> 10 µM
CCC(C1=C(O)OC(c2ccccc2)(C2CCCCC2)CC1=O)c1cccc(O)c1 (centres undefined)	0.61 µM	
CCCC1(CCc2ccccc2)CC(=O)C(C(CC)c2ccccc2)=C(O)O1 (centres undefined)	0.035 µM	
C=CC(C1=C(O)OC(CCC)(CCc2ccccc2)CC1=O)c1ccccc1 (centres undefined)	0.016 µM	
CCC(C1=C(O)OC2(CCCCC2)CC1=O)c1ccccc1 (centres undefined)		0.78 µM
CCCC1(CCC)CC(=O)C(C(c2ccccc2)C2CCCC2)=C(O)O1 (centres undefined)	0.039 µM	
CCCC1(CCc2ccccc2)CC(=O)C(C(/C=C/c2ccccc2)c2ccccc2)=C(O)O1 (centres undefined)	0.05 µM	
CCCC1(CCC)CC(=O)C(C(CC)c2ccccc2)=C(O)O1 (centres undefined)	0.022 µM	
CCCC1(CCc2ccccc2)CC(=O)C(C(c2ccccc2)C2CCCC2)=C(O)O1 (centres undefined)	0.059 µM	
CCCC1(CCc2ccccc2)CC(=O)C(C(CCc2ccccc2)c2ccccc2)=C(O)O1 (centres undefined)	0.033 µM	
C=CC(C1=C(O)OC2(CCCCC2Cc2ccccc2)CC1=O)c1ccccc1 (centres undefined)		> 1 µM
C=CC(C1=C(O)OC2(CCOCC2)CC1=O)c1ccccc1 (centres undefined)		> 10 µM
C=CC(C1=C(O)OC2(CCCCCC2)CC1=O)c1ccccc1 (centres undefined)		> 1 µM
CCCCC1(Cc2ccccc2)CC(=O)C(C(CC)c2ccccc2)=C(O)O1 (centres undefined)		3 µM
C=CC(C1=C(O)OC2(CCCC2)CC1=O)c1ccccc1 (centres undefined)		3 µM
CCCC1(CCC)CC(=O)C(C(c2ccccc2)C(C)(C)C)=C(O)O1 (centres undefined)		> 1 µM
CCCC1(CCC)CC(O)=C(C(c2ccccc2)C2CC2)C(=O)O1 (centres undefined)	0.015 µM	
